# Assay results: EP0624586B1, “Substituted pyrroles” (F. HOFFMANN-LA ROCHE AG, priority 1993, dated 1994)
# Counter-ions that a name gives are not always drawn.
# Biological target: protein kinase C
# Test: in vitro protein kinase C inhibition (32P incorporation from [γ-32P]ATP into histone)
# Type: biochemical
# Conditions: protein kinase C isolated from rat brains; 10 µM [γ-32P]ATP, lysine-rich histone, 30°C, 10 minutes
# Procedure: Reaction mixtures (100 µl) contain 10 µM [γ-^32P]ATP, 0.2 mg/ml (about 15 µM) lysine-rich histone, 0.5 mM CaCl2 and 40 µg/ml phosphatidylserine in 25 mM Tris HCl, 5 mM MgNO3 (pH 7.5) buffer. The enzyme protein kinase C is isolated from rat brains according to the method of Kikkawa et al., J. Biol. Chem. 257, 13341 (1982). The reaction is started by adding the enzyme, is run at 30°C for 10 minutes and is then stopped using 1 ml of ice-cold 10% trichloroacetic acid. Acid-precipitable protein is collected on glass fibre discs by filtration. These discs are then washed with 5% trichloroacetic acid containing 20 mM sodium pyrophosphate (in order to remove unreacted ATP), followed by ethanol. The discs are dried and counted. Counts associated with each disc are used as a measure of the incorporation of ^32P from [γ-^32P]ATP into histone. The degree of enzyme blockade at each test compound concentration is calculated from (Cpm incorporated + test compound + enzyme)/(Cpm incorporated - test compound + enzyme)x 100% [formula] The IC50 value is that concentration of test compound which reduces by 50% the protein kinase-induced incorporation of the ^32P under the assay conditions described above.
row,IC50,Structure (SMILES)
1,3.3 nM,"CCC(N)[C@H]1CCn2c(c(C3=C(c4cn(C)c5ccccc45)C(=O)NC3=O)c3ccccc32)C1 (single isomer, unassigned) [Example 10, 3-[8(S)-[1(R or S)-aminopropyl]-6,7,8,9-tetrahydropyrido[1,2-a]indol-10-yl]-4-(1-methyl-3-indolyl)-1H-pyrrole-2,5-dione hydrochloride]"
2,5.5 nM,"CC(C)[C@H](N)[C@H]1CCn2c(c(C3=C(c4cn(C)c5ccccc45)C(=O)NC3=O)c3ccccc32)C1 [Example 11, 3-[8(S)-[1(S)-amino-2-methylpropyl]-6,7,8,9-tetrahydropyrido[1,2-a]indol-10-yl-4-(1-methyl-3-indolyl)-1H-pyrrole-2,5-dione hydrochloride]"
